From ChEMBL document CHEMBL1201862, “PubChem BioAssay data set” (2004)
The source made the active and inactive calls.

Experiments:
[1] = target: Tyrosine-protein phosphatase non-receptor type 12 (Homo sapiens, UniProt Q05209); test: SAR Selectivity Analysis of small molecule inhibitors of PEST using pCAP in a fluorescence assay. [Related pubchem assays (depositor defined):AID1779, AID1784, AID2135]; assay type: functional
[2] = target: T1, Tyrosine-protein phosphatase non-receptor type 22 (Homo sapiens, UniProt Q9Y2R2); test: LYP (PTPN22) phosphatase inhibitor potency, SAR follow-up, biochemical, pCAP fluorogenic substrate, fluorescence, set 3 (AID 449727); assay type: functional
T1 sequence (Q9Y2R2 whole entry): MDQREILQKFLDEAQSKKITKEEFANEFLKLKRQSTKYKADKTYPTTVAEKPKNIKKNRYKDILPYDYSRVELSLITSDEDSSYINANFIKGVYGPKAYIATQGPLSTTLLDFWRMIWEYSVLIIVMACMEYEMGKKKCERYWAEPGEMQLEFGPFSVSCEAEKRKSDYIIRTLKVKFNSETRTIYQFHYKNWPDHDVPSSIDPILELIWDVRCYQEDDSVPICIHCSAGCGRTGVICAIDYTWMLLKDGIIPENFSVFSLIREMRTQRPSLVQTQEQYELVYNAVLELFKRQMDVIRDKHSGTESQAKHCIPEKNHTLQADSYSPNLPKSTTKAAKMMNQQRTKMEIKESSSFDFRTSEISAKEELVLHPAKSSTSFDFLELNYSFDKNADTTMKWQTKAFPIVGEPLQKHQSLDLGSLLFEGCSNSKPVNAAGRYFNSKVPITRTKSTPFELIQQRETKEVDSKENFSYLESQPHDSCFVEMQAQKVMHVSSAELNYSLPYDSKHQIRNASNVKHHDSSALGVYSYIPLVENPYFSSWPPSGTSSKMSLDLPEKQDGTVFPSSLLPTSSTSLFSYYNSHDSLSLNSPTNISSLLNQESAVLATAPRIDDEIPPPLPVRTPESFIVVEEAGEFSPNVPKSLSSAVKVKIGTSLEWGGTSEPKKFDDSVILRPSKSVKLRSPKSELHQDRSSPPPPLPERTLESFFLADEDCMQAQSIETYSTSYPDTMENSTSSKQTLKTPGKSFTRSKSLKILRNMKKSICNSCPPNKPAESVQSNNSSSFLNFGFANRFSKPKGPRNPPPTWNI

[3] = target: T1, Tyrosine-protein phosphatase non-receptor type 22; test: SAR LYP1 Fluorescent Assay using OMFP substrate for In Vitro dose response studies - Set 3. [Related pubchem assays (depositor defined):AID1779, AID1784, AID2140, AID2686]; assay type: functional
[4] = target: Glyceraldehyde-3-phosphate dehydrogenase (Homo sapiens, UniProt P04406)
Sequence of Glyceraldehyde-3-phosphate dehydrogenase (P04406 whole entry): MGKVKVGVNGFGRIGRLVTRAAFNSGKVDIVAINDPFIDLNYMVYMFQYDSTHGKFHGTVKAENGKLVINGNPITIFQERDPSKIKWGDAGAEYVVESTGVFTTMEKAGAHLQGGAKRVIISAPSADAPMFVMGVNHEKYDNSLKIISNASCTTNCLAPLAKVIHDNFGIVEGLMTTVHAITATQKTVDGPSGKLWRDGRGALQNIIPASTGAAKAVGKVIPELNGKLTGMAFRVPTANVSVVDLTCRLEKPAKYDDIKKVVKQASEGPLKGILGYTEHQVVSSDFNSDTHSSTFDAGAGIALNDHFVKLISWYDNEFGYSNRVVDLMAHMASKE

Insulin-degrading enzyme [5] = target: T2, Insulin-degrading enzyme (Homo sapiens, UniProt P14735); test: activators of recombinant IDE enzyme, dose response, counter-screen for IDE activator project, biochemical, fluorescence polarization (AID 588681)
T2 sequence (P14735 whole entry): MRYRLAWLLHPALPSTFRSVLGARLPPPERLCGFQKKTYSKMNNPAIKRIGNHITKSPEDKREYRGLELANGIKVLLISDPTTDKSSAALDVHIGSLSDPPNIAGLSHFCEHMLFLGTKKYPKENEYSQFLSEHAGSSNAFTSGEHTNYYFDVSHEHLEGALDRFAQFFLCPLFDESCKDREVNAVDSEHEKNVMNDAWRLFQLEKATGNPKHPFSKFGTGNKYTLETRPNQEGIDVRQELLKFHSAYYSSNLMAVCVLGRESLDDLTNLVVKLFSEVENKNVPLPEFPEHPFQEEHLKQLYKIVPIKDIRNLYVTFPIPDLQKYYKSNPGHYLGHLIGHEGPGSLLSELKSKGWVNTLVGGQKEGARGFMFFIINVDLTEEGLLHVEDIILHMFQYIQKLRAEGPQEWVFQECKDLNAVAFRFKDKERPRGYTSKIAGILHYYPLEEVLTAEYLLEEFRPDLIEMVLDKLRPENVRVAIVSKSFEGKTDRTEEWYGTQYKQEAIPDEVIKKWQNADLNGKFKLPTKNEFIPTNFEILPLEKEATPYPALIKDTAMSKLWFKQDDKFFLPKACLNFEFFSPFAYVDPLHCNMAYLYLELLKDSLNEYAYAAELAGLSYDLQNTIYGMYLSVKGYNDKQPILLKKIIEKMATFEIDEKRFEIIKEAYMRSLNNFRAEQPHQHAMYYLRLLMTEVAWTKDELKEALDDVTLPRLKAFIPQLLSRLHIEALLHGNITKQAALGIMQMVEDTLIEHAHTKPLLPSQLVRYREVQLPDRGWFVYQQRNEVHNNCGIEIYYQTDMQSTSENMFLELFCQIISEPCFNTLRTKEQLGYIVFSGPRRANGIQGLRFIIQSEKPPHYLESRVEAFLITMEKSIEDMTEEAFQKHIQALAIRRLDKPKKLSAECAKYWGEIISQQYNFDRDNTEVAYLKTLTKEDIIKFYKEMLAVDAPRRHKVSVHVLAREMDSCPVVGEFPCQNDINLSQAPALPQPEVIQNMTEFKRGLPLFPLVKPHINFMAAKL

HEK293 [6] = test: HEK cell cytotoxicity by LDH release, dose response, cytotoxicity control for IDE activator project, fluorescence, HEK cells (AID 588440); assay type: functional, cell-based; conditions: Homo sapiens;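 note: cytotoxicity by LDH release measuring loss of membrane integrity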
Insulin-degrading enzyme [7] = target: T2, Insulin-degrading enzyme; test: activators of endogenous IDE in HEK cells, dose response, cell-based, fluorescence polarization (AID 588439); assay type: functional
HEK293 [8] = test: optical interference in Abeta FP readout, dose response, artefact control for IDE activator project, biochemical, fluorescence polarization (AID 588442); assay type: functional, cell-based; conditions: Homo sapiens
Protein Rev = Protein Rev (Human immunodeficiency virus type 1 group M subtype B (isolate HXB2)(HIV-1), UniProt P04618); test: inhibitors of Rev binding to RRE RNA, dose response, biochemical, fluorescence polarization, HIV-1 (AID 434976); set-up: species or system Human immunodeficiency virus 1
Sequence of Protein Rev (P04618 whole entry): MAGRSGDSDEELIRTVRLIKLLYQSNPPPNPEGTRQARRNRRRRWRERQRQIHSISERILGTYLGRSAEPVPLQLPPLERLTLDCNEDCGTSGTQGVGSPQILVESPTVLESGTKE

[9] = target: Female germline-specific tumor suppressor gld-1 (Caenorhabditis elegans, UniProt Q17339); test: inhibitors of GLD-1 binding to TGE RNA, dose response, biochemical, fluorescence polarization, C. elegans (AID 2802);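 note: fluorescence polarization of labeled TGE RNA bound by purified gld-1 protein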
Sequence of Female germline-specific tumor suppressor gld-1 (Q17339 whole entry): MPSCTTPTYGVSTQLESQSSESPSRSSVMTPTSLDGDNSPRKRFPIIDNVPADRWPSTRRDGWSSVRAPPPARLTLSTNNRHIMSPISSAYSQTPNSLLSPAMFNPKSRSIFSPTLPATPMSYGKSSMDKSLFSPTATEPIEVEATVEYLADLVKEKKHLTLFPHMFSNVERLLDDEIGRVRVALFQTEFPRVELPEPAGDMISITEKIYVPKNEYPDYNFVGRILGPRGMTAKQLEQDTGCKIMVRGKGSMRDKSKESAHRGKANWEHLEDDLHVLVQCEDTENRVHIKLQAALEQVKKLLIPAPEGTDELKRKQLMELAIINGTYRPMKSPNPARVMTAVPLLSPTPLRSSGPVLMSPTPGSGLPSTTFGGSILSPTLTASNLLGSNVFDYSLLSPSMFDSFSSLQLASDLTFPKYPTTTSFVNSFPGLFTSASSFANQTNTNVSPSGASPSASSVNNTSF

Trypsin = Trypsin (Sus scrofa, UniProt P00761); test: porcine trypsin inhibitors, dose response, selectivity assay for Rce1 protease inhibitor project, biochemical, quenched peptide fluorescence, cherry-pick (AID 488789)
Sequence of Trypsin (P00761 whole entry): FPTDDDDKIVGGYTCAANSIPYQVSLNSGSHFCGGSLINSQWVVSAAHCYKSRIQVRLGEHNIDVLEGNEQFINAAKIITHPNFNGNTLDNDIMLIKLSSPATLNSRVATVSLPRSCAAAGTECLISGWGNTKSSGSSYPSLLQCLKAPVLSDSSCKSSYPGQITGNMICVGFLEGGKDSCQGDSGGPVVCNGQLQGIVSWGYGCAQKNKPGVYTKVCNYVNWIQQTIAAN

cells [10] = assay type: functional, cell-based
[11] = HEp-2 cell cytotoxicity, dose response, cytotoxicity control for RSV inhibitor project, HTS (AID 2410); assay type: functional; conditions: human respiratory syncytial virus
cells [12] = assay type: functional, cell-based; remark: listed apart in the source
[13] = target: T3, Trace amine-associated receptor 1 (Homo sapiens, UniProt Q96RJ0); test: Fluorescence-based cell-based high throughput dose response assay to identify agonists of the human trace amine associated receptor 1 (TAAR1).; assay type: functional
T3 sequence (Q96RJ0 whole entry): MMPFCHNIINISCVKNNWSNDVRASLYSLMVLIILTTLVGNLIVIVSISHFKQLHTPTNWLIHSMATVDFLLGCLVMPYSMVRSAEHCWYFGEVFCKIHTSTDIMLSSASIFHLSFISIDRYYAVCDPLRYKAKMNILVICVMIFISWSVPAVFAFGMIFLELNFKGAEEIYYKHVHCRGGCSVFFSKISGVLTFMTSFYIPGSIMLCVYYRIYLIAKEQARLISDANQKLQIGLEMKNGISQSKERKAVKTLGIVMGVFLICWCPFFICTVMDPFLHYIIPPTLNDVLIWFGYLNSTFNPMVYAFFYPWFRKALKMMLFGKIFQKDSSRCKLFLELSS

[14] = target: T3, Trace amine-associated receptor 1; test: Counterscreen for agonists of the human trace amine associated receptor 1 (hTAAR1): Fluorescence-based cell-based high throughput dose response assay to identify hTAAR1 agonist that also desensitize TAAR1 receptor response.; assay type: functional
[15] = target: Melanin-concentrating hormone receptor 1 (Homo sapiens, UniProt Q99705); test: Late-stage fluorescence-based counterscreen for antagonists of the G-protein coupled receptor 7 (GPR7): cell-based dose response assay to identify antagonists of the melanin-concentrating hormone receptor 1 (MCHR1). [Related pubchem assays (depositor defined):AID1861, AID1880, AID1952, AID2148, AID2251, AID2257, AID485339]; assay type: functional;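 note: stimulated with 30 nM MCH peptide agonist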
Sequence of Melanin-concentrating hormone receptor 1 (Q99705 whole entry): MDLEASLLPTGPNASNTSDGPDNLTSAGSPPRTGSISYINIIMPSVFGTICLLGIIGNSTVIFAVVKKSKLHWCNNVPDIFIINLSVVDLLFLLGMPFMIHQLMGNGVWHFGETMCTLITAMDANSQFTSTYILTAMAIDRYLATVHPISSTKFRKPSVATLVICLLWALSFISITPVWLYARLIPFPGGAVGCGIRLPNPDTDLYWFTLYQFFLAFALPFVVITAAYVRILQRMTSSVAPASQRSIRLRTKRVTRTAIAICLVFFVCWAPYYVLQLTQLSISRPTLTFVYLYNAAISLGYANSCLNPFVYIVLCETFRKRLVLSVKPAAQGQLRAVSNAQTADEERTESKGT

[16] = target: T4, Neuropeptides B/W receptor type 1 (Homo sapiens, UniProt P48145); test: GPR7 antagonist potency, late-stage follow-up, cell-based, fluorescence, dose response (AID 463251); assay type: functional
T4 sequence (P48145 whole entry): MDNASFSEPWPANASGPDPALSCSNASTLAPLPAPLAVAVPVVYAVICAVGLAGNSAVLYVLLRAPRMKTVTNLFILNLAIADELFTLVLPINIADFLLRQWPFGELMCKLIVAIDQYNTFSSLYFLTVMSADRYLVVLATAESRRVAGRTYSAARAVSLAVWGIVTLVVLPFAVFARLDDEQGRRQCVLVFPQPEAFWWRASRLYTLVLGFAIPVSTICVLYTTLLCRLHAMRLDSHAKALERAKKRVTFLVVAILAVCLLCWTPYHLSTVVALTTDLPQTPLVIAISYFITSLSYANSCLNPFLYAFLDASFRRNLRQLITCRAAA

Sequence of Tyrosine-protein phosphatase non-receptor type 12 (Q05209 whole entry): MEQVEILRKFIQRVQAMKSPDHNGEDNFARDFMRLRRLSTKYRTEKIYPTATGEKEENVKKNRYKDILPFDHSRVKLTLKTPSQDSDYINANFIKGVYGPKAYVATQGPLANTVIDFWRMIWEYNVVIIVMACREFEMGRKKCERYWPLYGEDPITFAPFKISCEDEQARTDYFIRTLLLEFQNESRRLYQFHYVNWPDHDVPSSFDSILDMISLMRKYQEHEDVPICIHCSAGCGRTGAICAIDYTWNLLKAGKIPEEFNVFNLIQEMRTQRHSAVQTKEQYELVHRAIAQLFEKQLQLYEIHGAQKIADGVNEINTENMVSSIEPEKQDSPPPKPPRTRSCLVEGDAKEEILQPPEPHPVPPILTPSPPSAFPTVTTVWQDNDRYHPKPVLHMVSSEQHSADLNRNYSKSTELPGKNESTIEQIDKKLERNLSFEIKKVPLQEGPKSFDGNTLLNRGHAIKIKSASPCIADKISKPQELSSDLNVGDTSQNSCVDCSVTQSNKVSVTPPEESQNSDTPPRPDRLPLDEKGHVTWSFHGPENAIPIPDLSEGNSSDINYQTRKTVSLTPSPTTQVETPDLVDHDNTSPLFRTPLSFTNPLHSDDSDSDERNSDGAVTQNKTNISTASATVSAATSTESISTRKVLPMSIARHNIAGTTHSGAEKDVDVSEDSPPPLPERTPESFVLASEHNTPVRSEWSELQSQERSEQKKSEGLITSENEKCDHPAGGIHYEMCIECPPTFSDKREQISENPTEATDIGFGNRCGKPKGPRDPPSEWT

Structure (SMILES): COc1ccc(/C=C2\SC(=S)N(C(CC(=O)O)C(=O)O)C2=O)cc1 (stereo not drawn)
- IC50 [1]: > 100 µM (inactive)
- IC50 [2]: > 100 µM (inactive)
- IC50 [3]: > 100 µM (inactive)
- IC50 [4]: > 100 µM (not active)

Structure (SMILES): O=C(O)c1ccccc1N=Nc1ccc(O)cc1
- EC50 (Insulin-degrading enzyme [5]): 26.9 µM (inactive)
- IC50 (HEK293 [6]): > 89.2 µM (inactive)
- EC50 (Insulin-degrading enzyme [7]): 22.3 µM (inactive)
- EC50 (HEK293 [8]): 50.3 µM (inactive)
- IC50 (Protein Rev): 22 µM (not active)
- IC50 [9]: 8.4 µM (active)

Structure (SMILES): O=C(NCC1CC1)c1ccc(Nc2nc3cc(Br)ccc3[nH]2)cc1
- AC50 (Trypsin): 9.83 µM (active)
- EC50 (cells [10]): > 29.9 µM (inactive)
- CC50 [11]: 7.81 µM (active)
- IC50 (cells [12]): 14.5 µM (inactive)
- EC50 [13]: 14.6 µM (inactive)
- IC50 [14]: 2.09 µM (active)

Structure (SMILES): Cc1ccc(CN2CCCCC2C(=O)N2CCN(c3ccc([N+](=O)[O-])cc3)CC2)cc1 (stereo not drawn)
- IC50 [15]: 5.8 µM (active)
- IC50 [16]: 9 µM (active)
